The source of these data is PubChem BioAssay (NCI).

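Dose response: 5 concentrations. Exposure: 48 h. Format: 96-well plates. Endpoint: linear interpolation; highest concentration if not reached. Here, GI50 denotes the concentration required for 50% inhibition of growth. TGI is the concentration that stops growth completely.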 A value given as a limit tells only on which side of the number the result lay.

Assay in all cases: DTP human tumour cell line panel, 48 h
The subject of assay [1] is DMS 273 small cell lung.
The subject of assay [2] is LOX IMVI melanoma.
The subject of assay [3] is HT29 colon.
The subject of assay [4] is NCI-H23 lung.
The test system of assay [5] is EKVX NSCLC.
Assay [6] deals with A498 renal.
Assay [7] has as its system SK-MEL-5 melanoma.
Assay [8] concerns RXF 393 renal.
Assay [9] concerns NCI-H226 lung.
Assay [10] relates to UACC-62 melanoma.

In the case of `COc1ccccc1/C=C1\CCC(CCN(C)C)(C2=CCCC2)C1=O` (centres undefined), the TGI is 32.1 µM in assay [1]; 31.3 µM in [2]; 39.3 µM in assay [3]; more than 100 µM in assay [4]; 18.6 µM in assay [5]; 32.1 µM in [6]. Further, the TGI in assay [7] is 26.7 µM; in assay [8], 27.3 µM; in assay [9], 40.5 µM; in [10] it was 23.5 µM.
`Cc1ccc(-c2cc(-c3ccco3)c(C#N)c(=O)[nH]2)cc1`: the concentration for total growth inhibition (TGI) in assay [1], in assay [2], in assay [3], in assay [4], in assay [5] and in [6] was more than 100 µM each time. Besides, the total growth inhibition concentration (TGI) in assay [7], in [8], in [9] and in [10] was more than 100 µM in each case.
With `OC1c2ccccc2C2(O)C1C(c1ccccc1)C(c1ccccc1)C2(O)c1ccccc1` (centres undefined), the TGI in assay [1] worked out at 23.5 µM; in [2], 21.1 µM; in assay [3] it was 22.8 µM; in assay [4] it was 41.7 µM; in [5], 70.8 µM; in assay [7] it was 21.7 µM. The figures for the TGI in assay [8] and in assay [10] were 76.2 µM and 28.4 µM, respectively.
Consider `O=C(/C=C/c1ccccc1)CC1OC(=O)c2ccccc21` (centres undefined), for which the TGI in assay [1], in assay [2], in assay [3], in assay [4], in assay [5] and in [6] was more than 100 µM in each case. In addition, the concentration for total growth inhibition (TGI) in assay [7] is more than 100 µM; in assay [8], more than 100 µM; in assay [9], 83.1 µM; in [10], 66.5 µM.
For `CC(C)=CCC/C(C)=C/CC/C(C)=C/Cc1c(O)c2ccccc2oc1=O`, the TGI in assay [1], in [2], in [3], in assay [4], in [5] and in [8] was more than 100 µM throughout. For the same compound, the total growth inhibition concentration (TGI) in assay [9] and in assay [10] was more than 100 µM each time.
Turning to `NC1CCCCC1.[O]=[Ge].[O]=[Ge].[O]=[Ge][OH].[O]=[Ge][OH]`, the total growth inhibition concentration (TGI) in assay [1], in assay [2], in [3], in [4], in assay [5] and in assay [6] was more than 100 µM each time. Besides, the TGI in assay [7], in assay [8], in assay [9] and in assay [10] was more than 100 µM each time. Further, the GI50 in [9] was more than 100 µM.
As to `COC(=O)C1C(O)CC(c2ccccn2)N(Cc2ccccc2)C1c1ccccn1` (centres undefined), the TGI in assay [1], in assay [2], in assay [3], in [4], in assay [5] and in assay [6] was more than 100 µM each time. For the same compound, the TGI in assay [7], in assay [8], in assay [9] and in [10] was more than 100 µM each time.
With `CC1CC2CC(=O)CC3(C1)C2CCCN3CCCO` (centres undefined), the concentration for total growth inhibition (TGI) in assay [1], in assay [2], in assay [3], in assay [4], in [5] and in assay [6] was more than 100 µM throughout. For the same compound, the total growth inhibition concentration (TGI) in [7], in [8], in [9] and in assay [10] was more than 100 µM in each case.
Turning to `COc1ccc(NC(=O)C(=O)Cc2nc3ccc([N+](=O)[O-])cc3[nH]c2=O)c(OC)c1`, the TGI in [1], in [2], in [3], in assay [4], in assay [5] and in assay [6] was more than 100 µM in each case. In addition, the concentration for total growth inhibition (TGI) in assay [7], in assay [8], in assay [9] and in assay [10] was more than 100 µM in each case.
`O=C(O)COc1ccc(O)c2c1C(=O)CCCC2=O`: the TGI in assay [1], in assay [2], in [3], in assay [4], in [5] and in [6] was more than 100 µM throughout. The total growth inhibition concentration (TGI) in assay [7] and in assay [10] was more than 100 µM in each case.
Regarding `O=C(c1ccc(Cl)cc1)c1ccc(OCCCCCCCCCCOc2ccc(C(=O)c3ccc(Cl)cc3)cc2)cc1`, the TGI in assay [1], in assay [2], in [3], in assay [4], in [5] and in [6] was more than 100 µM each time. The concentration for total growth inhibition (TGI) in assay [7], in [8], in assay [9] and in [10] was more than 100 µM each time.
On to `C=C(CCCCCCCCC)CC(=O)SCCNC(=O)CCNC(=O)C(O)C(C)(C)COP(=O)(O)OP(=O)(O)OCC1OC(n2cnc3c(N)ncnc32)C(O)C1OP(=O)(O)O` (centres undefined), for which the TGI is 45.2 µM in [1]; 75.7 µM in [2]; more than 100 µM in assay [3]; more than 100 µM in [4]; more than 100 µM in assay [5]; more than 100 µM in assay [6]. The total growth inhibition concentration (TGI) is 52.2 µM in assay [7], more than 100 µM in assay [8], more than 100 µM in assay [9] and 46.1 µM in [10].
On to `CCOC(=O)C1(Br)C(c2ccccc2)NC(=O)NC1(C)Br` (centres undefined), for which the total growth inhibition concentration (TGI) in [1] was more than 100 µM; in assay [2], more than 58.4 µM; in assay [3], more than 100 µM; in assay [4] it was more than 100 µM; in [5], more than 100 µM; in assay [6] it was more than 100 µM. The TGI in assay [7], in assay [8], in assay [9] and in [10] was more than 100 µM throughout.
Regarding `O=C(c1ccccc1)C1CCCCN1C(=O)c1ccccc1` (centres undefined), the TGI in assay [1], in assay [6], in assay [7], in [8], in assay [9] and in [10] was more than 100 µM in each case.
Consider `CCCNCCCC(NC(C)=O)C(=O)NCc1ccccc1` (centres undefined), for which the TGI in assay [1], in assay [2], in assay [3], in assay [4], in assay [5] and in assay [6] was more than 100 µM throughout. Further, the concentration for total growth inhibition (TGI) in [7], in assay [8], in assay [9] and in assay [10] was more than 100 µM in each case.
For `O=C(O)C1C2CCC(O2)C1C(=O)N1CCCCC1` (centres undefined), the concentration for total growth inhibition (TGI) in assay [1] is 23.3 µM; in assay [2], 23.3 µM; in [3] it was 15.1 µM; in assay [4] it was 33.4 µM; in assay [5] it was 29.2 µM; in assay [6], 4.46 µM. Further, the total growth inhibition concentration (TGI) in [7] stood at 29.7 µM; in assay [8], 8.35 µM; in [9] it was 16.6 µM; in [10], 20.4 µM.
On to `CCCCc1c2c(nc3c1CCc1cc4cc5c(nc4nc1-3)-c1nc3c(c(CCCC)c1CC5)CCCC3)CCCC2`, for which the total growth inhibition concentration (TGI) in [1] was more than 100 µM; in assay [2] it was more than 100 µM; in assay [3], 31.5 µM; in assay [4], more than 100 µM; in [5] it was more than 100 µM; in assay [8], 71.4 µM. The TGI in assay [9] is 89.1 µM; in [10], 52 µM.
Consider `O=C1C=CC=CC2CC=C[C@@H](O)C12` (some centres undefined), for which the total growth inhibition concentration (TGI) stood at 51.5 µM in assay [1]; 38.9 µM in assay [2]; 37.7 µM in [3]; 63.5 µM in assay [5]; 38.2 µM in [6]; 38 µM in [7]. Moreover, the concentration for total growth inhibition (TGI) in assay [10] was determined as 38.5 µM.
For the compound `COc1cc(/C=C\c2ccccc2)cc(OC)c1OC`, the TGI in assay [1] is 11.5 µM; in [2], more than 100 µM; in [3], 14.1 µM; in assay [4] it was 19.5 µM; in [5], more than 84.9 µM; in [6] it was more than 41.1 µM. In addition, the TGI turned out to be 9.12 µM in [7], 5.25 µM in assay [8], 24.1 µM in assay [9] and 41.2 µM in [10].
As to `Nc1nc2c(c(=O)[nH]1)NC(CO)CN2` (centres undefined), the total growth inhibition concentration (TGI) in assay [1] is more than 100 µM; in [2], 36.7 µM; in assay [3] it was more than 100 µM; in assay [4] it was more than 100 µM; in [5], more than 100 µM; in assay [8], more than 100 µM. For the same compound, the total growth inhibition concentration (TGI) in [9] and in assay [10] was more than 100 µM each time.
With `O=c1[nH]c(=O)n([C@@H]2C[C@H](CO)[C@H](O)C2)cc1/C=C/Br`, the TGI in [1], in assay [2], in assay [3], in assay [4], in assay [5] and in assay [6] was more than 100 µM each time. The concentration for total growth inhibition (TGI) in assay [7], in [9] and in assay [10] was more than 100 µM each time.
`CC12N=NN(c3ccc([N+](=O)[O-])cc3)C1(O)c1ccccc1C2=O` (centres undefined): the total growth inhibition concentration (TGI) in assay [1], in [2], in [3], in assay [4], in assay [5] and in assay [7] was more than 100 µM each time. Moreover, the total growth inhibition concentration (TGI) in assay [8], in assay [9] and in assay [10] was more than 100 µM throughout.
Regarding `Cn1nc(-c2ccccc2)c(C(=O)/C=C/c2ccc(F)cc2)c(N2CCCCC2)c1=O`, the TGI in assay [1] was 28.8 µM; in assay [2], 15.4 µM; in assay [3], 20.2 µM; in assay [5], 72.3 µM; in assay [7], 19.7 µM; in assay [8], 9.86 µM. In addition, the TGI in [10] was 30 µM.
For the compound `COC(=O)C(C(=O)C(=O)Nc1ccc(C(F)(F)F)cc1[N+](=O)[O-])c1csc(-n2nc(-c3ccccc3)cc2-c2ccccc2)n1` (centres undefined), the concentration for total growth inhibition (TGI) in assay [1], in assay [2], in assay [3], in [4], in [6] and in assay [8] was more than 100 µM in each case. The total growth inhibition concentration (TGI) in [9] and in assay [10] was more than 100 µM each time.
For `CS(=O)(=O)OCCN1CCN(C(=O)c2cccc3c(Nc4ccc(S(=O)(=O)N=C(N)N)cc4)c4ccccc4nc23)CC1`, the concentration for total growth inhibition (TGI) in [1], in [3], in assay [4], in [6], in assay [7] and in assay [8] was more than 100 µM in each case. The TGI in assay [9] and in assay [10] was more than 100 µM each time.
`NCCCOCC(=O)O`: the concentration for total growth inhibition (TGI) in assay [1], in assay [3], in assay [4], in [5], in [7] and in [8] was more than 100 µM each time. The TGI in assay [9] and in [10] was more than 100 µM in each case.
Take `CC1CC#CCOC(=O)CCCC1=O` (centres undefined): the TGI in assay [1], in assay [2], in [3], in assay [4], in assay [7] and in assay [8] was more than 100 µM each time. Moreover, the concentration for total growth inhibition (TGI) in assay [9] and in assay [10] was more than 100 µM each time.
As for `O=C(Nc1ccc(F)cc1)c1ccc(NC2=C(Cl)C(=O)N(Cc3ccccc3)C2=O)cc1`, the GI50 in assay [2] is 11.3 µM; in [3] it was 13.1 µM; in [4], 31.5 µM; in assay [5] it was 27 µM; in assay [6], 13.6 µM; in assay [7] it was 18.5 µM. Also, the GI50 was 12.2 µM in assay [8], 13.5 µM in assay [9] and 18.1 µM in assay [10]. Further, the total growth inhibition concentration (TGI) in assay [2] was 25.2 µM; in assay [3] it was more than 100 µM; in assay [4], 84.4 µM; in assay [5] it was 87 µM; in assay [6], 31.9 µM; in assay [7], 63.7 µM. The TGI in assay [8] stood at 32.2 µM; in [9], 33.3 µM; in assay [10] it was 38.5 µM.

The TGI is the concentration at which net growth stops. Higher therefore signals lower sensitivity of the cells. In general, GI50 refers to the concentration that inhibits growth by half.
